Measured values taken from patent US12622912B2, “Application of pyrido[1,2-a]pyrimidinone analog” (GUANGZHOU JOYO PHARMATECH CO., LTD, priority 2021, dated 2026).
Read-outs that look alike come from different tables or passages of the source.

How the values were obtained:
[1] = biological target: T1, human PI3K p110α (E542K)/p85α (Homo sapiens, UniProt P42336, E542K); assay: HTRF kinase activity assay, E542K mutant; assay type: biochemical
T1 construct: purchased Millipore 14-782
Experimental: (§1) Main reagents: human PI3K p110α/p85α (purchased from Promega, Cat. No. V1721), human PI3K p110α (E542K)/p85α (purchased from Millipore, Cat. No. 14-782), human PI3K p110α (E545K)/p85α (purchased from Millipore, Cat. No. 14-783) and human PI3K p110α (H1047R)/p85α (purchased from Millipore, Cat. No. 14-792)
(§2) 1) Compound was prepared. The initial concentration of compound I was 100 nM, and was serially diluted 3-fold to 10 concentrations and transferred to the test plate.
(§3) 2) Human PI3K p110α/p85α, human PI3K p110α (E542K)/p85α, human PI3K p110α (E545K)/p85α or human PI3K p110α (H1047R)/p85α and assay buffer (10 μM phosphatidylinositol 4,5-bisphosphate and Mg/ATP) were incubated. The reaction was initiated by adding ATP solution and incubated for 30 min.
(§4) 3) After incubation for 30 minutes, the reaction was terminated by adding stop solution. The stop solution contained EDTA, biotinylated phosphatidylinositol-3,4,5-trisphosphate.
(§5) 4) Detection buffer was added, europium-tagged anti-GST monoclonal antibody, GST-tagged GRP1 PH domain, and streptavidin allophycocyanin.
(§6) 5) The plate was read and the HTRF value was calculated according to the formula HTRF=10000×(Em665 nm/Em620 nm). GraphPad Prism 5.0 software was used, and a S-type dosage-survival rate curve was drawn using a nonlinear regression model and IC50 value was calculated.

[2] = biological target: T2, human PI3K p110α (H1047R)/p85α (Homo sapiens, UniProt P42336, H1047R); assay: HTRF kinase activity assay, H1047R mutant; assay type: biochemical
T2 construct: purchased Millipore 14-792
T2 sequence (P42336 whole entry H1047R): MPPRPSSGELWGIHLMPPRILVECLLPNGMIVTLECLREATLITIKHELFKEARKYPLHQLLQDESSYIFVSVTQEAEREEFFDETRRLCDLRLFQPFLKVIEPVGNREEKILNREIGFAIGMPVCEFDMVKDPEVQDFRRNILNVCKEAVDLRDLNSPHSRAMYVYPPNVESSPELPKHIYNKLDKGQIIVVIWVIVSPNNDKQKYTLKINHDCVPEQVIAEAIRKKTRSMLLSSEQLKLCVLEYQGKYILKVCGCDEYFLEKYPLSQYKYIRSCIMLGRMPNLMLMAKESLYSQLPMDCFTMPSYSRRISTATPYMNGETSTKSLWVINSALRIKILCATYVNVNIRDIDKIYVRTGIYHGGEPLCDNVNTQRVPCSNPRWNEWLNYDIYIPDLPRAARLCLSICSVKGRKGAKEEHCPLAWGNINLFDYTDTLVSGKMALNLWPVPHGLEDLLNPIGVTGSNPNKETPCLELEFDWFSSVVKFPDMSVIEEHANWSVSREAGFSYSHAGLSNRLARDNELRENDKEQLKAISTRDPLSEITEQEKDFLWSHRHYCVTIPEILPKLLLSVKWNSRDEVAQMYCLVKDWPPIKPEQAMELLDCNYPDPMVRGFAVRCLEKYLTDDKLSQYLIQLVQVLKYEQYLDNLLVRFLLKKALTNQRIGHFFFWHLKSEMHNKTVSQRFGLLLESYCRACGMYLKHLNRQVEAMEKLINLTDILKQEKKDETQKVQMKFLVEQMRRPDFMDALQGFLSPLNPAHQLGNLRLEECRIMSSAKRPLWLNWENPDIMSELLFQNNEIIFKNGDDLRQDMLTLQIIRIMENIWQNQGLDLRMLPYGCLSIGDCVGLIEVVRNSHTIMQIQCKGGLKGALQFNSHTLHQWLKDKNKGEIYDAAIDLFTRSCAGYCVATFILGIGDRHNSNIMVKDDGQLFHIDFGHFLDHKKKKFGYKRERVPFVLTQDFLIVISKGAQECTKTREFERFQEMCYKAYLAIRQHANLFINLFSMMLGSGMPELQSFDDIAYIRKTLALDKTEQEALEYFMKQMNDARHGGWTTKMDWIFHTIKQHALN
T2 sequence (P27986 whole entry partner): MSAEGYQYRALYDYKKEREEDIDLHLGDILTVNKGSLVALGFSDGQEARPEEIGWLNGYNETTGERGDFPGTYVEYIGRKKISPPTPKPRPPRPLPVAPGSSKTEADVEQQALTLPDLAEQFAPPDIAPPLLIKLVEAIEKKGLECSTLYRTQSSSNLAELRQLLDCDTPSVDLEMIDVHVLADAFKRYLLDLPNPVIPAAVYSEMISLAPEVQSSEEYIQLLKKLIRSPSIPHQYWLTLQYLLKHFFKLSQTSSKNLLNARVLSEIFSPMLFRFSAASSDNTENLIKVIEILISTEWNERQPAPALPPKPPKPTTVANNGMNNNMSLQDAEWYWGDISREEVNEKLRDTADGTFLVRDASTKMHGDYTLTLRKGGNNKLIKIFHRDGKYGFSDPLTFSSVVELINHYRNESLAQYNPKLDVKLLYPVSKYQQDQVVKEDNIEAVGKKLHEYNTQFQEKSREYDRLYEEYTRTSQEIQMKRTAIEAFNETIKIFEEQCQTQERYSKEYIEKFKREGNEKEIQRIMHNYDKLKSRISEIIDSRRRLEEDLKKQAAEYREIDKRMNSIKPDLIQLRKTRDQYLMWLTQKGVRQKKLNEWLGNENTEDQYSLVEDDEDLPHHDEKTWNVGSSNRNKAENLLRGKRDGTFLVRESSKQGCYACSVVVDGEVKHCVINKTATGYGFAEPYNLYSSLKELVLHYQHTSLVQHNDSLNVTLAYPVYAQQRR
Experimental: as §1, §2, §3, §4, §5, §6

[3] = tested on: T47D PIK3CA-mutated breast cancer cell line; assay: CTG cell proliferation, T47D; assay type: cell-based; conditions: 72 hours, read-out: Absolute IC50
Description: (2) Reagents • 1) FBS (fetal bovine serum) (purchased from ExCell, product number: FND500); • 2) DMEM medium (purchased from Gibco, product number: C11995500BT); • 3) Insulin (purchased from Gibco, product number: EPX010-12003-901); • 4) RPMI1640 medium (purchased from Hyclone, product number: SH30809.01); • 5) MEM medium (purchased from Hyclone, product number: SH30024.01). (3) Test Article and Positive Control Article • Test article: compound I; • Positive control article: Cisplatin, Molecular weight: 300.05; Solvent: PBS (phosphate buffer saline); Storage condition: 2-8° C.; Supplier: Qilu Pharmaceutical. (4) The CTG Method was Used to Determine the Cell Proliferation IC50 of the Compound.
(§7) Step 1: Cells in exponential growth phase were harvested, and viable cells were counted with a Vi-Cell XR cytometer. The cell suspension was adjusted to an appropriate concentration with medium. 90 μL of cell suspension was added to each well of a 96-well cell culture plate, and the final cell concentration was 1500-6000 cells/well.
Step 2: The initial concentration of administration of compound I was 3 μM, and the initial concentration of administration of the control drug Cisplatin was 100 μM, and serially diluted 3-fold, a total of 9 concentration gradients and a DMSO control, the final concentration of DMSO in each well was 0.1%, placed in a 37° C., 5% CO2 incubator for 72 hours.
(§8) Step 3: After 72 hours of drug treatment, 50 μL (½ culture volume) CTG solution that was melted and equilibrated to room temperature was added to each well according to the CTG operation instruction. […] After 10 minutes, the fluorescence signal value was measured with an Envision2104 plate reader.
(§9) Cell survival rate was calculated using the formula: Vsample/Vvehicle control×100%. Where, Vsample was the reading of the drug treatment group, and Vvehicle control was the average value of the solvent control group. GraphPad Prism 5.0 software was used, and a S-type dosage-survival rate curve was drawn using a nonlinear regression model and IC50 value was calculated.

[4] = tested on: Ca Ski PIK3CA-mutated cervical cancer cell line; assay: CTG cell proliferation, Ca Ski; assay type: cell-based; conditions: Homo sapiens, 72 hours, read-out: Absolute IC50
Description: (§10) (2) Reagents • 1) FBS (fetal bovine serum) (purchased from ExCell, product number: FND500); • 2) RPMI1640 medium (purchased from Hyclone, product number: SH30809.01); • 3) McCoy's 5A medium (purchased from Gibco, product number: 12330-031); • 4) MEM medium (purchased from Hyclone, product number: SH30024.01; • 5) MEM NEAA (purchased from Gibco, product number: 11140-050); • 6) Sodium pyruvate (purchased from Gibco). (3) Test Article and Positive Control Article • Test article: compound I; Positive Control Article: • 1) Alpelisib, molecular weight: 441.47; solvent: DMSO; storage condition after dissolution: −20° C.; supplier: Shanghai TOPSCIENCE Biochemical Technology Co., Ltd., CAS number: 1217486-61-7; • 2) Cisplatin, molecular weight: 300.05; solvent: PBS (phosphate buffer saline); storage condition: 2-8° C.; supplier: Qilu Pharmaceutical. (4) The CTG Method was Used to Determine the Cell Proliferation IC50 of the Compound
as §7, with “cells/well. […]” for “cells/well.”
as §8, §9

[5] = tested on: C-33A PIK3CA-mutated cervical cancer cell line; assay: CTG cell proliferation, C-33A; assay type: cell-based; conditions: Homo sapiens, 72 hours, read-out: Absolute IC50
Description: as §10
as §7, with “cells/well. […]” for “cells/well.”
as §8, §9

[6] = tested on: PIK3CA-mutated cervical cancer cells; assay: CTG cell proliferation, cervical cancer cell lines; assay type: cell-based; conditions: across PIK3CA-mutated cervical cancer cell lines, 72 hours, Alpelisib: in two cell lines, read-out: half inhibitory concentration
Description: (2) Reagents • 1) FBS (fetal bovine serum) (purchased from ExCell, product number: FND500); • 2) RPMI1640 medium (purchased from Hyclone, product number: SH30809.01); • 3) McCoy's 5A medium (purchased from Gibco, product number: 12330-031); • 4) MEM medium (purchased from Hyclone, product number: SH30024.01; • 5) MEM NEAA (purchased from Gibco, product number: 11140-050); • 6) Sodium pyruvate (purchased from Gibco). […]
Step 1: Cells in exponential growth phase were harvested, and viable cells were counted with a Vi-Cell XR cytometer. […]
as §8, §9

T1 sequence (P42336 whole entry E542K): as the sequence (P42336 whole entry H1047R) above, with E542K, R1047H counted along it
T1 sequence (P27986 whole entry partner): as the sequence (P27986 whole entry partner) above

IC50 [1]: 3 nM | IC50 [2]: 2 nM | IC50 ([3]; listed as compound I): < 1000 nM | IC50 [3]: 17 nM | IC50 [4]: 39 nM | IC50 [5]: 180 nM | IC50 [6]: 15 to 180 nM
Compound: COCCOc1cnc2ccc(-c3cnc(OC)c(NS(=O)(=O)c4sc(C)nc4C)c3)cn2c1=O [Compound I]
